{"source": "patent US11278550B2", "about": "“Compositions and methods for the treatment of Prader-Willi syndrome” (Duke University, priority 2016, dated 2022)", "key": {"[1]": {"tested_on": "human PWS fibroblasts", "experiment": "Chromatin accessibility assay", "format": "cell-based", "details": "vs vehicle-treated controls", "procedure": "Chromatin accessibility assay was performed to investigate whether G9a inhibitors change open/close state of the imprinted cluster in the PWS-IC region according to Pai, C.C., et al. Nature communications 5, 4091 (2014) with slight modifications. Briefly, 3 days after drug treatment in human PWS fibroblasts, the cells were harvested and lysed with lysis buffer (0.5% NP-40, 15 mM Tris-HCl [pH 7.4], 0.15 mM Spermidine, 0.5 mM Spermine, 15 mM NaCl, 60 mM KCl, 1 mM DTT, 0.1 mM PMSF, 0.5M Sucrose, Protease and Phosphatase inhibitor cocktail (Roche)). The lysed cells were collected by centrifugation (3000 RPM/10 min/4° C.) and rinsed with digestive buffer (15 mM Tris-HCl [pH 7.4], 15 mM NaCl, 60 mM KCl, 4 mM MgCl2, 1 mM DTT, 0.1 mM PMSF, 0.35M Sucrose). After rinsing the cell pellets, MNase (NEB) was added to digest open status of chromatins, followed by genomic qPCR to determine changes in amount of SNRPN and other imprinted genes."}, "[2]": {"tested_on": "human PWS fibroblasts", "experiment": "Western blot of SNRPN protein in human PWS fibroblasts", "format": "cell-based", "details": "4 μM, 72 hr"}, "[3]": {"tested_on": "PWS-IC", "experiment": "Bisulfite genomic sequencing of PWS-IC, human PWS cells", "format": "cell-based", "procedure": "(§1) Genomic DNA was isolated from human PWS fibroblasts or mouse tissues. DNA (1 μg) was then treated by bisulfite using the Epi-Tect bisulfite kit (Qiagen), and 125 ng input DNA was used per PCR amplification. PCR products were sub-cloned into pGEM-T easy vector (Promega) and an average of 15 clones were sequenced. DNA sequencing results were analyzed using BISMA web-based analysis platform with a setting for individual clones with <95% bisulfite conversion and <90% sequence identity to be excluded in the analysis."}, "[4]": {"details": "in vivo; cited from earlier work"}, "[5]": {"target": "T1, G9a (Mus musculus, UniProt Q9Z148)", "T1 construct": "from tissue", "T1 sequence (Q9Z148 1-1263)": "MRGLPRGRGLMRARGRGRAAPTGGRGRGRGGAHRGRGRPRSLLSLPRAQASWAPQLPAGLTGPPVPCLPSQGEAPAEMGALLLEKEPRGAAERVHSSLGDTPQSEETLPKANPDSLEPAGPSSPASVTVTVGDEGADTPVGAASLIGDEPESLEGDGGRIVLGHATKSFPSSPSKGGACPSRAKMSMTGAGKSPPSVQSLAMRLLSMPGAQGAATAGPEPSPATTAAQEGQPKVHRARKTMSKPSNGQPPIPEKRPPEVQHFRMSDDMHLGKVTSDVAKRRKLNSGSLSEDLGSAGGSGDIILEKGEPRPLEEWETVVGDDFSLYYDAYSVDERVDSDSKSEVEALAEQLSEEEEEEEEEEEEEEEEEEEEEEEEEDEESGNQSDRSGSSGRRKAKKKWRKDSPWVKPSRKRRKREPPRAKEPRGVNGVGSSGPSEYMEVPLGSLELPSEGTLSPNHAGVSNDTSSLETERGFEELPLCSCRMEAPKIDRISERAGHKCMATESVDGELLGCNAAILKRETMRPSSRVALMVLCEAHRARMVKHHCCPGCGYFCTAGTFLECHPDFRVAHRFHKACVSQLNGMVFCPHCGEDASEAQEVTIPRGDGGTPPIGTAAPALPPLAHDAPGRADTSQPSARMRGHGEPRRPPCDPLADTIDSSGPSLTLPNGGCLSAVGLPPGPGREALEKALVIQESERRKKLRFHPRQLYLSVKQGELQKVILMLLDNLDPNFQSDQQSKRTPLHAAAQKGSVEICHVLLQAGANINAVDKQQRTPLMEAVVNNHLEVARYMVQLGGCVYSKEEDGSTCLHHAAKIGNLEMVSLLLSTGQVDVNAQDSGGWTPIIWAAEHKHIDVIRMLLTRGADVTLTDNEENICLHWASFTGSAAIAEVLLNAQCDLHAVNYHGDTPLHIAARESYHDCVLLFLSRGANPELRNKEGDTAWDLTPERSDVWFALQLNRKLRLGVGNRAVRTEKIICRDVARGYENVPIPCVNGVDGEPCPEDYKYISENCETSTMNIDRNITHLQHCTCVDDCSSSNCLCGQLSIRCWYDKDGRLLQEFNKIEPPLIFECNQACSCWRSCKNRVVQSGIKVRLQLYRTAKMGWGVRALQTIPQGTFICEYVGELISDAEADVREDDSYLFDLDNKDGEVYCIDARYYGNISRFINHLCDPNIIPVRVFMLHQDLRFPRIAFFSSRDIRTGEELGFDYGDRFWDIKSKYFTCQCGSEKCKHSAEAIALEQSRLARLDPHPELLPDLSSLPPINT", "details": "single dose of 5 mg/kg i.p.; cited from earlier work"}, "[6]": {"tested_on": "m+/pΔS-U mice", "experiment": "Survival and growth in PWS mouse model", "format": "in vivo", "details": "between P10 and P19, treated m+/pΔS-U pups", "quoted_text": "The dosage and duration vary depending on the age and condition of animals.\nThe m/p^ΔS-U pups were treated between postnatal day 7 (P7) and P12, as most m^+/p^ΔS-U pups died before weaning. For neonatal PWS mice, a lower dose regimen of 2.5 mg/kg i.p. injections for 5 consecutive days was used. […] Pups at postnatal day 7 (P7) were treated with a daily dose of 2.5 mg/kg for 5 days."}, "[7]": {"tested_on": "several cell lines", "details": "cited from earlier work"}, "[8]": {"tested_on": "m+/pΔS-U and WT mice", "experiment": "Toxicity evaluation in mice (body weight, neurological screening, blood, histopathology)", "format": "in vivo, mouse", "procedure": "Brain, liver, lung, kidney and heart tissues from 3-month-old mice were fixed in 10% neutral buffered formalin (NBF: 10 ml of Formalin (37% stock), 90 ml of deionized water, 4 g/liter of NaH2PO4, 6.5 g/liter Na2HPO4), embedded in paraffin, sectioned at 5 μm, stained with hematoxylin and eosin, and images examined by a board-certified toxicological pathologist.\nBlood was collected from 3-month-old mice into microcontainers or hematology assay tubes using jugular vein bleeding puncture. A serum metabolic panel was obtained using the Heska Dry Chem analyzer (Cuattro Veterinary USA). The metabolic panel contained chem and electrolyte, liver and kidney functions. For hematology analysis, we tested whole blood using Procyte (IDEXX).\nGeneral health of mice was evaluated using a modified version of standard test battery for behavioral phenotyping (see 57). Observational assessment included the evaluation of body weight, body core temperature, overt behavioral signs (coat appearance, body posture and secretary signs) and sensory functions (visual ability, audition, tactile percep- tion and vestibular function). Table 6 indicates the mouse sex and age information."}, "[9]": {"tested_on": "PWS-IC", "experiment": "Bisulfite genomic sequencing of PWS-IC, liver of PWS mice", "format": "in vivo", "details": "livers from PWS mouse models", "procedure": "as §1"}}, "note": "Entries after “also recorded” stand apart in the source; their conditions may differ.", "data": [{"smiles": "COc1cc2c(NC3CCN(C(C)C)CC3)nc(C3CCCCC3)nc2cc1OCCCN1CCCC1", "note": "[UNC0638]", "values": [{"measurement": "chromatin accessibility across the imprinted domains incl. SNRPN and SNORD116", "setting": "[1]", "value": "more open and accessible"}, {"measurement": "SNRPN protein, of normal levels", "setting": "[2]", "value": "approximately 30%"}, {"measurement": "DNA methylation of the PWS-IC", "setting": "[3]", "value": "did not significantly alter"}]}, {"smiles": "COc1cc2c(NC3CCN(C(C)C)CC3)nc(N3CCC(F)(F)CC3)nc2cc1OCCCN1CCCC1", "note": "[UNC0642]", "values": [{"measurement": "pharmacokinetic properties such as central nervous system penetration", "setting": "[4]", "value": "superior to UNC0638"}, {"measurement": "inhibition of G9a activity in adult mice", "setting": "[5]", "value": "sufficient to inhibit G9a activity"}, {"measurement": "growth (body weight)", "setting": "[6]", "value": "significant improvement of growth"}, {"measurement": "cell toxicity", "setting": "[7]", "value": "low cell toxicity"}, {"measurement": "loss of body weight", "setting": "[8]; WT mice", "value": "not observed"}, {"measurement": "general health and neurological screening", "setting": "[8]; blinded", "value": "did not reveal any substantial abnormalities"}, {"measurement": "histopathological analyses", "setting": "[8]; brain, liver, kidney, lung and heart, P90 / 3 months", "value": "did not reveal any abnormalities; also recorded: no significant compound related lesions"}, {"measurement": "hematological analysis (liver and kidney functions, lipid and protein metabolism)", "setting": "[8]; treated m+/pΔS-U and WT mice", "value": "within normal ranges"}, {"measurement": "DNA methylation of the PWS-IC", "setting": "[9]", "value": "did not significantly alter"}]}]}
